Experimental data taken from patent US6747125B1, “Peptides intermediates for making GnRH antagonists” (The Salk Institute for Biological Studies, priority 1991, dated 2004).

Experiments:
ovulation in female rats = test: in vivo testing of effectiveness to prevent ovulation in female rats; parameters: species or system Sprague-Dawley rats; conditions: injected at about noon on the day of proestrus, rats ovulating/rats treated
Method: The in vivo testing determines effectiveness to prevent ovulation in female rats. In this test, a specified number of mature female Sprague-Dawley rats, e.g. five to ten, each having a body weight from 225 to 250 grams, is injected with a specified microgram dosage of peptide in either saline, bacteriostatic water, polyethylene glycol, corn oil or mixtures of the above with ethanol at about noon on the day of proestrus. Proestrus is the afternoon […]. A separate female rat group is used as a control to which the peptide is not administered. Each of the control female rats ovulates on the evening of proestrus; of the rats treated, the number of them which ovulate is recorded. Each of the peptides is considered to be totally effective to prevent ovulation of female rats at a dose of about 500 micrograms.

[1] = test system: LH levels in the bloodstream; test: suppression of circulating LH in castrate male rats after single IV bolus; assay type: in vivo, Sprague-Dawley rats
From the text: In addition to the in vivo testing, mentioned above, to determine effectiveness to prevent ovulation in female rats, groups of about 6 adult castrate male Sprague-Dawley rats, each having a body weight from 225 to 250 grams, are each injected IV with a 50 microgram dosage of either Peptide No. 103A or a standard antagonist referred to as the Nal-Glu antagonist (see J. Clin. Edno. Metab., 71, 4, 881-888 (1990)) in either corn oil or a phosphate buffer in the presence of BSA (bovine serum albumin). A separate rat group is used as a control, to which only the carrier is administered. Each of the control rats and the rats being treated are monitored for LH levels in the bloodstream at about 3 hours, 24 hours, 36 hours and 48 hours following this single bolus injection.

Row | Substance | Rats Ovulating (ovulation in female rats; dosage 0.5 micrograms) | Rats Ovulating (ovulation in female rats; dosage 1.0 micrograms) | Rats Ovulating (ovulation in female rats; dosage 2.5 micrograms) | level of circulating LH in the bloodstream relative to Nal-Glu antagonist ([1]; 50 microgram IV, after 12 hours) | level of circulating LH in the bloodstream relative to control ([1]; 50 microgram IV, monitored at about 3, 24, 36 and 48 hours) | duration of biological effect (LH suppression) ([1]; single 50 microgram IV bolus injection)
1 | Ac-β-D-2NAL-(4Cl)D-Phe-D-3PAL-Ser-Aph(3-amino 1,2,4 triazole)-D-Aph(3-amino 1,2,4 triazole)-Leu-Lys(isopropyl)-Pro-D-Ala-NH2 [Peptide 103A] | 7/8 | 0/7 | 0/8 | below that of the rats treated with the Nal-Glu antagonist | very substantially below that of the control | very long-acting
2 | Ac-β-D-2NAL-(4Cl)D-Phe-D-3PAL-Ser-Lys (isopropyl cyanoguanidino)-D-Lys(isopropyl cyanoguanidino)-Leu-Lys(isopropyl)-Pro-D-Ala-NH2 [Peptide 1] | – | 0/5 | 0/9 | – | – | –
